Source: ChEMBL document CHEMBL3091334, “Design and synthesis of novel 3-(benzo[d]oxazol-2-yl)-5-(1-(piperidin-4-yl)-1H-pyrazol-4-yl)pyridin-2-amine derivatives as selective G-protein-coupled receptor kinase-2 and -5 inhibitors” (Bioorg Med Chem Lett, 2013)

Experiments:
[1] = molecular target: T1, Beta-adrenergic receptor kinase 1 (Homo sapiens, UniProt P25098); assay: Inhibition of GRK-2 (unknown origin) preincubated with enzyme for 10 mins before adding peptide substrate and ATP measured after 1 hr by LANCE-TR-FRET assay
T1 sequence (P25098 whole entry): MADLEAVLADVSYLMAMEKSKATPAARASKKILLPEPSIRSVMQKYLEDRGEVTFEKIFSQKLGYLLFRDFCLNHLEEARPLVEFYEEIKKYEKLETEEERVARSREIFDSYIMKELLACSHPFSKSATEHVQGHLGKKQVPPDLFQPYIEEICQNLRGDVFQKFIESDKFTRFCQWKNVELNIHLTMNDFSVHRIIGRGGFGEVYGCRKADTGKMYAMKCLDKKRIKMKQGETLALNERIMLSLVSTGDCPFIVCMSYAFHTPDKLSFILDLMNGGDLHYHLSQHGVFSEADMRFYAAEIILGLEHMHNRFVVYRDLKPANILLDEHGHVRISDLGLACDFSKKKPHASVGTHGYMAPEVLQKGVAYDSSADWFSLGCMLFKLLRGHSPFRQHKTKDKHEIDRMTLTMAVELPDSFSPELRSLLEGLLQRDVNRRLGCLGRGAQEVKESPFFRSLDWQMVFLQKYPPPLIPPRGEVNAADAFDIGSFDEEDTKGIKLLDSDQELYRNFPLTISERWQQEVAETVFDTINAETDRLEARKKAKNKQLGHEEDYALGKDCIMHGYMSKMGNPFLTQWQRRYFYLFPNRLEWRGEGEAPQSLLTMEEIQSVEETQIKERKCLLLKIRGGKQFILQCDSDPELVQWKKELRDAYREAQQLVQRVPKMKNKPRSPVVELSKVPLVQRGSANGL

[2] = molecular target: G protein-coupled receptor kinase 5 (Homo sapiens, UniProt P34947)
Sequence of G protein-coupled receptor kinase 5 (P34947 whole entry): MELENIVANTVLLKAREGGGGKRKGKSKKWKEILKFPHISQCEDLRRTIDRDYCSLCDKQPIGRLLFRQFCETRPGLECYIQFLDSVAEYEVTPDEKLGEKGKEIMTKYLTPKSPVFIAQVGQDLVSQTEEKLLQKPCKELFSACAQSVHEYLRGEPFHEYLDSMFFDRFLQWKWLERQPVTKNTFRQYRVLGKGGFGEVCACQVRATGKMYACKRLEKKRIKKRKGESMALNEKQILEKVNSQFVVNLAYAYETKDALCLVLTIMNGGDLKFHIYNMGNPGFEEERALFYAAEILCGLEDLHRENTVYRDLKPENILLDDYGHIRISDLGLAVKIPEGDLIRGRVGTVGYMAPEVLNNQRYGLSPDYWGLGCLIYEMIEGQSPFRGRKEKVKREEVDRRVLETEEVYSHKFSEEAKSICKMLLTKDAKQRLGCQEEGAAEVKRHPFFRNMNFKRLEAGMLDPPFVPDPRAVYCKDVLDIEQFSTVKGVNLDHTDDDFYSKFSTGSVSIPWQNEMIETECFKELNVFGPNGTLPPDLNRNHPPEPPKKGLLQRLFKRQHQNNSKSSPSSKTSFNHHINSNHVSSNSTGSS
Description: Inhibition of GRK-5 (unknown origin) preincubated with enzyme for 10 mins before adding peptide substrate and ATP measured after 1 hr by LANCE-TR-FRET assay

[3] = molecular target: Hepatocyte growth factor receptor (Homo sapiens, UniProt P08581); assay: Inhibition of c-Met (unknown origin)
Sequence of Hepatocyte growth factor receptor (P08581 whole entry): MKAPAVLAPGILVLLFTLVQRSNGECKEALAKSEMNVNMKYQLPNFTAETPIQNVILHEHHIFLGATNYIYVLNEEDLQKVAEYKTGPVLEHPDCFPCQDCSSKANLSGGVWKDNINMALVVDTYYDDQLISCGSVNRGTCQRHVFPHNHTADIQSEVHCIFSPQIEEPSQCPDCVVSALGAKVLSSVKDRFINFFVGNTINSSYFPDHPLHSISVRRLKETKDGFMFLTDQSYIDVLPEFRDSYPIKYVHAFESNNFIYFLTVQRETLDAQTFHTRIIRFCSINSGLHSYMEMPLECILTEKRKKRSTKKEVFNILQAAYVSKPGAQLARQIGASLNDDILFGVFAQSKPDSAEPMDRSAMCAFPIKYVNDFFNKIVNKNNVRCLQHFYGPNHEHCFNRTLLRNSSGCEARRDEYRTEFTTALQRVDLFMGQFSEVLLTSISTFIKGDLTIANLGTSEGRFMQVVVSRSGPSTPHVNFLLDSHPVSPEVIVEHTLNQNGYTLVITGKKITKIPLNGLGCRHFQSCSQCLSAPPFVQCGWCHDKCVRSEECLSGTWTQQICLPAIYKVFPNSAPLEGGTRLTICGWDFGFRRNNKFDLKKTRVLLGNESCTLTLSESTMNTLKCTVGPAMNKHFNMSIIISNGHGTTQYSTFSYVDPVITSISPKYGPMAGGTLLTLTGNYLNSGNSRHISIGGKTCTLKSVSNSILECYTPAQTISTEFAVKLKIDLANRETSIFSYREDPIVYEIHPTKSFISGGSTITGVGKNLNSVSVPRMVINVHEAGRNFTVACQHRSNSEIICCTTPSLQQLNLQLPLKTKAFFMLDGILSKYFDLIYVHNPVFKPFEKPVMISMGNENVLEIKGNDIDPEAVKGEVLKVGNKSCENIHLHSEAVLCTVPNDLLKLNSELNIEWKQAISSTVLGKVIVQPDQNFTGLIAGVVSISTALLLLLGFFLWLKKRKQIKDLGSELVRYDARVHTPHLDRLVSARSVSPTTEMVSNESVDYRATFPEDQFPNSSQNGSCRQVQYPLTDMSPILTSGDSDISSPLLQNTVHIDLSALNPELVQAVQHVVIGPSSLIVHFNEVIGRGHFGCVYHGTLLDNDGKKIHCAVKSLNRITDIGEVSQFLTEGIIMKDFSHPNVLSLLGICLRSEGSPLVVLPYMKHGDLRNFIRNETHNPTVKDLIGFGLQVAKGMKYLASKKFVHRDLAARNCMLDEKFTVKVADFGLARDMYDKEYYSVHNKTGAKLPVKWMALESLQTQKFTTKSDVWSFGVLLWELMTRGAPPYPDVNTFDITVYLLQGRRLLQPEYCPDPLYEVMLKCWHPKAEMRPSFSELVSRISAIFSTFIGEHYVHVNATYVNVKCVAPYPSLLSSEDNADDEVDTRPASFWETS

[4] = molecular target: ALK tyrosine kinase receptor (Homo sapiens, UniProt Q9UM73); assay: Inhibition of ALK (unknown origin)
Sequence of ALK tyrosine kinase receptor (Q9UM73 whole entry): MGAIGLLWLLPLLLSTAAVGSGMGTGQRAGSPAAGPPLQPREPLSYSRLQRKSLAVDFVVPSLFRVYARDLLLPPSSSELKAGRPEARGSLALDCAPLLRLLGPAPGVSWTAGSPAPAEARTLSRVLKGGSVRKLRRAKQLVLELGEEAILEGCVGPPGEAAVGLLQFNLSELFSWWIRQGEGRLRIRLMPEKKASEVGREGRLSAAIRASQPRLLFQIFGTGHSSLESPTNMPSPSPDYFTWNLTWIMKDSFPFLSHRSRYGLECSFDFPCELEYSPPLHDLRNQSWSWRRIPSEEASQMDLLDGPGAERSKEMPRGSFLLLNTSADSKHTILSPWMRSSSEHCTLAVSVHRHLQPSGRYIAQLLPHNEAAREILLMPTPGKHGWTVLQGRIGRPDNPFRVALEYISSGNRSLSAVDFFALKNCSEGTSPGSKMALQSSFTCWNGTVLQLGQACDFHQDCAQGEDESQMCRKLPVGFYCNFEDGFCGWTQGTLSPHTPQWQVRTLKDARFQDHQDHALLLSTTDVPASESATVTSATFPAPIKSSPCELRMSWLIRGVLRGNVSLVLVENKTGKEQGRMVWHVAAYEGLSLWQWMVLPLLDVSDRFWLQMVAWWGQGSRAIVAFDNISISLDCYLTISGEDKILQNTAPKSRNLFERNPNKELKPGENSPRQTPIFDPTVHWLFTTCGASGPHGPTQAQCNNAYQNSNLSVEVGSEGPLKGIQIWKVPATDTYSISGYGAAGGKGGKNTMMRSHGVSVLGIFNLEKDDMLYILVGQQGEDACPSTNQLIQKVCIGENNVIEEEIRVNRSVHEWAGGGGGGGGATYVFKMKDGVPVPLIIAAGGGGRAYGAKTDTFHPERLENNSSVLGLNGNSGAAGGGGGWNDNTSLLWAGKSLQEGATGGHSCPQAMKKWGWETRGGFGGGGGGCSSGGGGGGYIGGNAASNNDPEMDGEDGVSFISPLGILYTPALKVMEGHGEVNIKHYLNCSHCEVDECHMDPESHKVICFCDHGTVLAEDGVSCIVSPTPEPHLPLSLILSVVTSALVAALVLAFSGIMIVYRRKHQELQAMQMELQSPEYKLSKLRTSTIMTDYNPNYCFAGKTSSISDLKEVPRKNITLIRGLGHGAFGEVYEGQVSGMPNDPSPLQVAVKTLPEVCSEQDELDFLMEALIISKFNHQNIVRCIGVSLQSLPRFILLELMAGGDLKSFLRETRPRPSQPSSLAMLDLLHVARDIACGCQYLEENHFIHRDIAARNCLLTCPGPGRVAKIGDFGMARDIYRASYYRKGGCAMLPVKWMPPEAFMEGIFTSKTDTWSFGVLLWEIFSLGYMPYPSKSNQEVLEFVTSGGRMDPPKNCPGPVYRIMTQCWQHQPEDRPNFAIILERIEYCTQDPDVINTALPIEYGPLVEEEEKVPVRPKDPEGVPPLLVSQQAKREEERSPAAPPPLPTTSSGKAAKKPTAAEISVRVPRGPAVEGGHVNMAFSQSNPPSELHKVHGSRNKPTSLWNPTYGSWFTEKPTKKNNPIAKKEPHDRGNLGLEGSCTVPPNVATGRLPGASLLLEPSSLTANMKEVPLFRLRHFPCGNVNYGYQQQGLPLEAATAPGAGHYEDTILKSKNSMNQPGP

Compound | IC50 [1] | IC50 [2] | IC50 [3] | IC50 [4]
Nc1ncc(-c2cnn(C3CCNCC3)c2)cc1-c1nc2ccc(Nc3ccc(F)cc3)cc2o1 | 9.3 µM | 3.7 µM | – | –
Cc1ccc(S(=O)(=O)NC(=O)Nc2ccc3nc(-c4cc(-c5cnn(C6CCNCC6)c5)cnc4N)oc3c2)cc1 | 8.3 µM | – | – | –
CC(=O)Nc1ccc2oc(-c3cc(-c4cnn(C5CCNCC5)c4)cnc3N)nc2c1 | 3.06 µM | 3.22 µM | – | –
CNc1ccc2oc(-c3cc(-c4cnn(C5CCNCC5)c4)cnc3N)nc2c1 | 6.32 µM | – | – | –
Nc1ncc(-c2cnn(C3CCNCC3)c2)cc1-c1nc2ccc(Oc3ncccn3)cc2o1 | > 10 µM | 3.1 µM | – | –
Cc1cc2nc(-c3cc(-c4cnn(C5CCNCC5)c4)cnc3N)oc2cc1O | 2.14 µM | – | – | –
Nc1ccc2oc(-c3cc(-c4cnn(C5CCNCC5)c4)cnc3N)nc2c1 | 4.22 µM | – | – | –
CN(C)c1ccc2oc(-c3cc(-c4cnn(C5CCNCC5)c4)cnc3N)nc2c1 | 8.27 µM | 1.76 µM | – | –
Nc1ncc(-c2cnn(C3CCNCC3)c2)cc1-c1nc2ccc(N3CCCC3)cc2o1 | 0.46 µM | – | 8 nM | 340 nM
Nc1ncc(-c2cnn(C3CCNCC3)c2)cc1-c1nc2ccc(Nc3cc(F)cc(F)c3)cc2o1 | 2.26 µM | 1.25 µM | – | –
Nc1ncc(-c2cnn(C3CCNCC3)c2)cc1-c1nc2ccc(OCc3ccccc3)cc2o1 | > 10 µM | 6.9 µM | – | –
Nc1ncc(-c2cnn(C3CCNCC3)c2)cc1-c1nc2ccc(Nc3ccccn3)cc2o1 | 6.05 µM | 4.2 µM | – | –
Nc1ncc(-c2cnn(C3CCNCC3)c2)cc1-c1nc2ccc(NC(=O)Nc3ccc(F)cc3)cc2o1 | 1.72 µM | – | – | –
Nc1ncc(-c2cnn(C3CCNCC3)c2)cc1-c1nc2ccc(NC(=O)c3ccccc3)cc2o1 | 3.19 µM | 3.49 µM | – | –
Nc1ncc(-c2cnn(C3CCNCC3)c2)cc1-c1nc2ccc(NC(=O)c3ccc(C(F)(F)F)cc3)cc2o1 | 3.2 µM | 2.83 µM | – | –
COc1ccc(C(=O)Nc2ccc3nc(-c4cc(-c5cnn(C6CCNCC6)c5)cnc4N)oc3c2)cc1 | 3.97 µM | 2.09 µM | – | –
COc1ccc(-c2ccc3nc(-c4cc(-c5cnn(C6CCNCC6)c5)cnc4N)oc3c2)cc1 | 3.06 µM | 3.22 µM | – | –
Nc1ncc(-c2cccc(C(=O)NCCN3CCOCC3)c2)cc1-c1nc2cccc(-c3ccccn3)c2o1 | > 10 µM | – | – | –
Nc1ncc(-c2cnn(C3CCNCC3)c2)cc1-c1nc2ccc(O)c(-c3ccc4cn[nH]c4c3)c2o1 | 6.5 µM | – | – | –
CCc1ccc2nc(-c3cc(-c4cnn(C5CCNCC5)c4)cnc3N)oc2c1O | > 10 µM | 3.4 µM | – | –
Nc1ncc(-c2cnn(C3CCNCC3)c2)cc1-c1nc2cc(N3CCCCC3)ccc2o1 | 0.85 µM | – | – | –
Nc1ncc(-c2cnn(C3CCNCC3)c2)cc1-c1nc2cc(N3CCOCC3)ccc2o1 | 6.43 µM | 1.05 µM | – | –

Other lines, results leading:

IC50 [1] | IC50 [2] | IC50 [3] | IC50 [4] | Compound
2.63 µM | 1.66 µM | – | – | Nc1ncc(-c2cnn(C3CCNCC3)c2)cc1-c1nc2ccc(NC(=O)Nc3ccccc3)cc2o1
9.7 µM | – | – | – | Nc1ncc(-c2cnn(C3CCNCC3)c2)cc1-c1nc2ccc(O)c(-c3ccccc3)c2o1
13 µM | 2.2 µM | – | – | Cc1c(O)ccc2nc(-c3cc(-c4cnn(C5CCNCC5)c4)cnc3N)oc12
6.2 µM | 1.94 µM | – | – | Nc1ccc2nc(-c3cc(-c4cnn(C5CCNCC5)c4)cnc3N)oc2c1
4.9 µM | 3.5 µM | – | – | Nc1ncc(-c2cnn(C3CCNCC3)c2)cc1-c1nc2cc(Nc3ccccc3)ccc2o1
5.52 µM | – | – | – | CCCCNc1ccc2oc(-c3cc(-c4cnn(C5CCNCC5)c4)cnc3N)nc2c1
3.19 µM | – | – | – | CCCNc1ccc2oc(-c3cc(-c4cnn(C5CCNCC5)c4)cnc3N)nc2c1
> 10 µM | 4.5 µM | – | – | Nc1ncc(-c2cnn(C3CCNCC3)c2)cc1-c1nc2cc(-c3ccccc3)ccc2o1
10.1 µM | 4.3 µM | – | – | Nc1ncc(-c2cnn(C3CCNCC3)c2)cc1-c1nc2ccc(N3CCCCC3)cc2o1
5.3 µM | 0.81 µM | – | – | Nc1ncc(-c2cnn(C3CCNCC3)c2)cc1-c1nc2ccc(N3CCOCC3)cc2o1
> 10 µM | – | – | – | CC(C)Nc1ccc2nc(-c3cc(-c4cnn(C5CCNCC5)c4)cnc3N)oc2c1
5.7 µM | 4.2 µM | – | – | Nc1ncc(-c2cnn(C3CCNCC3)c2)cc1-c1nc2ccc(Nc3cc(C(F)(F)F)cc(C(F)(F)F)c3)cc2o1
11.5 µM | 4.7 µM | – | – | Nc1ncc(-c2cnn(C3CCNCC3)c2)cc1-c1nc2ccc(Nc3c(F)cccc3F)cc2o1
10 µM | 1.78 µM | – | – | Nc1ncc(-c2cnn(C3CCNCC3)c2)cc1-c1nc2ccc(-c3cn[nH]c3)cc2o1
> 10 µM | 4 µM | – | – | Nc1ncc(-c2cnn(C3CCNCC3)c2)cc1-c1nc2ccc(Oc3ccccc3)cc2o1
4.05 µM | 1.14 µM | – | – | Nc1ncc(-c2cnn(C3CCNCC3)c2)cc1-c1nc2ccc(-c3ccc4[nH]ncc4c3)cc2o1
11.9 µM | 1.31 µM | – | – | Nc1ncc(-c2cnn(C3CCNCC3)c2)cc1-c1nc2ccc(OCc3ccc(F)cc3)cc2o1
> 10 µM | 7.9 µM | – | – | Nc1ncc(-c2cnn(C3CCNCC3)c2)cc1-c1nc2ccc(Oc3ccc(F)cc3)cc2o1
17 µM | 5.7 µM | – | – | Nc1ncc(-c2cnn(C3CCNCC3)c2)cc1-c1nc2ccc(Oc3cc(Cl)ccn3)cc2o1
8.1 µM | 3.6 µM | – | – | N#Cc1ccnc(Oc2ccc3nc(-c4cc(-c5cnn(C6CCNCC6)c5)cnc4N)oc3c2)c1
3.8 µM | 1.2 µM | – | – | Nc1ncc(-c2cnn(C3CCNCC3)c2)cc1-c1nc2ccc(Oc3ccc(-c4ccccc4)nn3)cc2o1
0.66 µM | – | – | – | COc1ccc(N(C(=O)Nc2ccc3nc(-c4cc(-c5cnn(C6CCNCC6)c5)cnc4N)oc3c2)c2ccccc2)cc1
0.96 µM | – | – | – | Nc1ncc(-c2cnn(C3CCNCC3)c2)cc1-c1nc2ccc(NC(=O)c3ccc(F)cc3)cc2o1
> 10 µM | 6.4 µM | – | – | CS(=O)(=O)Oc1ccc2nc(-c3cc(-c4cnn(C5CCNCC5)c4)cnc3N)oc2c1
> 10 µM | – | – | – | CC(C)NC(=O)c1cc2nc(-c3cc(-c4cnn(C5CCNCC5)c4)cnc3N)oc2cc1O
> 10 µM | 5.1 µM | – | – | CN(C)COc1cccc(-c2cnc(N)c(-c3nc4cccc(-c5ccccn5)c4o3)c2)c1
> 10 µM | – | – | – | COc1ccc(-c2c(O)ccc3nc(-c4cc(-c5cnn(C6CCNCC6)c5)cnc4N)oc23)cc1
9.16 µM | 2.21 µM | – | – | COc1ccc2nc(-c3cc(-c4cnn(C5CCNCC5)c4)cnc3N)oc2c1-c1ccc2cn[nH]c2c1
1.65 µM | – | – | – | Nc1ncc(-c2cnn(C3CCNCC3)c2)cc1-c1nc2cc(N3CCCC3)ccc2o1
13 µM | 5.05 µM | – | – | CN(c1ccccc1)c1ccc2oc(-c3cc(-c4cnn(C5CCNCC5)c4)cnc3N)nc2c1
